# In patent US7232837B2, “Stereoisomers with high affinity for adrenergic receptors” (McNeil-PPC, Inc., priority 1999, dated 2007):
# Structures can show the parent of a compound that is named as a salt. Where two headings read alike, the source gives them in different places.
# Columns and labels:
# [1] = system: Swiss-Webster mice; test: Locomotor stimulant and depressant effects in mice; details: i.p.; for Depression Efficacy: ratio of the maximal depressant effect to the maximum possible effect (zero locomotor activity) / Stimulation Efficacy: ratio of the maximal stimulant effect of the test compound to the maximal effect of (+)-amphetamine: locomotor activity
# Description: Male Swiss-Webster mice (HSD ND4, Harlan Sprague Dawley, Houston, Tex.) aged 2–3 months were used in these studies. Each dose group consisted of 8 mice. The mice were housed 2 to 4 per cage in 30.4×22.9×15.2 cm clear polycarbonate cages with food and water available ad libitum for at least one week prior to locomotor activity testing. The colony was maintained at 23±1° C., on a normal light-dark cycle beginning at 0700 hr. All testing took place during the light portion of the light-dark cycle.
# Horizontal (forward movement) locomotor activity was measured using a standardized, optical activity monitoring system [Model KXYZCM (16), Omnitech Electronics, Columbus, Ohio]. Activity was monitored in forty 40.5×40.5×30.5 cm clear acrylic chambers that where housed in sets of two within larger sound-attenuating chambers. A panel of 16 infrared beams and corresponding photodetectors were spaced 2 cm apart along the sides and 2.4 cm above the floor of each activity chamber. A 7.5-W incandescent light above each chamber provided dim illumination via a rheostat set to 20% of full scale. Fans provided an 80-dB ambient noise level within the chamber.
# Triprolidine HCl was obtained from Research Biochemicals International, (Natick, Mass.).
# Locomotor stimulant effects. […] (+)-Amphetamine was used as a positive control. The total horizontal distance traversed (cm) was recorded at 10 minute intervals for a 2-hour session. Separate groups of 8 mice were assigned to each dose or saline group, and dose-effect testing continued for each compound until maximal stimulant or depressant effects could be estimated. A separate control group was tested along with each compound.
# Using TableCurve 2D v2.03 (Jandel Scientific), the mean average total distance traversed (cm/10 min) for that period was fit to a 3-parameter logistic peak function of log10 dose (with the constant set to the mean of the saline group), and the maximum effect estimated from the resulting curve. The […] (dose producing ½ maximal stimulant activity) was estimated from a linear regression against log10 dose of the ascending portion of the dose-effect curve. The stimulant efficacy was the peak effect of the compound (cm/10 min) as estimated from the logistic peak function, minus the mean control distance traveled (cm/10 min), and was expressed for each stimulant compound as a ratio to the stimulant efficacy determined for (+)-amphetamine.
# The mean average total distance traversed (cm/10 min) for that period were fit to a linear function of log10 dose of the descending portion of the dose-effect curve. […] Efficacy was the ratio of maximal depressant effect to maximum possible depression for each compound (mean average total distance of the control group minus the lowest mean total distance, expressed as a ratio to the control group total distance).
# (§1) Statistical analysis. Time course data for each compound were considered in 2-way analyses of variance with dose as a between-group and time as a within-group factor. The dose-effect data were considered in 1-way analyses of variance, and planned individual comparisons were conduced between each dose and the saline control group. Interaction studies were considered in 2-way analyses of variance, with Pretreatment and Test dose as the factors.
# [2] = system: Swiss-Webster mice; test: H1 receptor antagonist (triprolidine) interaction study, locomotor activity in mice; details: for effect of triprolidine pretreatment on stimulant or depressant effects: mice pretreated with triprolidine 20 min before the test compound
# Description: H1 receptor antagonist interaction studies. […] The mice were immediately placed in the activity testing chamber for a 2-h session. Doses of the test compound were selected from the ascending or descending time of the dose-effect curve determined from the compound-alone studies. Eight mice were tested for each triprolidine/test compound combination.
# as §1
# [3] = target: T1, β2 adrenergic receptors (Canis lupus familiaris, UniProt P54833); test: Beta-2 binding, 125iodocyanopindolol (ICYP), canine lung membranes; parameters: species or system canine (mongrel dogs)
# T1 construct: Canine lung membranes (10 μg protein/100 ul) were incubated with ^125ICYP; from tissue; host or cells: mongrel dog lung membranes
# Description: PULMONARY ALPHA-1 AND BETA-2 RECEPTORS: The lungs of mongrel dogs were separated from cartilaginous airways and major blood vessels, weighed, chopped and placed into 10 volumes of ice-cold buffered sucrose (50 mM Tris-HCl pH 7.4, 1 mM EGTA, 0.32M Sucrose). The tissue was then homogenized in a Polytron tissue homogenizer. The homogenate was filtered through two layers of cheesecloth, and the filtrate was dounced three times using a Con-Turque Potter homogenizer. […] The supernatant was recentrifuged at 30,000×g for 30 min at 4° C. and the resulting pellet was washed and resuspended in 10 volumes of Tris buffer (50 mM Tris HCl, pH 7.4, 1 mM EGTA) and incubated at 37° C. for 30 min in a shaking water bath. The suspension was centrifuged at 4° C. at 30,000×g for 30 min and the resulting pellet washed in 10 volumes of Tris buffer. […] Protein concentration was then determined by the Lowry method and the final suspension was adjusted to 10 mg of protein/ml, aliquoted and stored at […].
# Particulates were also prepared for β2 receptors using the identical procedure except the final protein concentration was adjusted to 0.1 mg/ml.
# (§2) ALPHA-2 BINDING ^125IODOCLONIDINE. […] Nonspecific binding was determined in separate incubations in the presence of 10 μM phentolamine. The final concentration of p-iodoclonidine was 44–45 pM in competition studies and between 50 pM and 10 nM in saturation experiments. Bound and free p-^125iodoclonidine were separated and the bound quantified as described above for the ICYP assays. […] BETA-2 BINDING, ^125IODOCYANOPINDOLOL (^125ICYP). […] Nonspecific binding was determined in separate incubations in the presence of 2 μM d,l-propranolol. Each experimental point was determined in triplicate. […] Incubations were terminated as described above for the α1 assays. Filters were placed into polyethylene tubes and the bound ligand was determined by gamma spectrometry (Sano et al., 1993).
# (§3) All data were analyzed with the aid of microcomputer nonlinear curve fitting programs (PRISM 2.0, Graphpad Software, San Diego Calif.).
# (§4) The receptors resident in each of the three membrane preparations were evaluated by standard saturation analysis following the addition of increasing concentrations of the appropriate radioligand. […] The radio ligand added for subsequent α2-displacement assays was adjusted to evaluate only the high affinity receptor. Contributions from p-iodoclonidine binding to imidazoline receptors in the α2-displacement assay were evaluated with epinephrine.
# (§5) The variable, I, is the concentration of tracer added and the variable, Kd, is the equilibrium dissociation constant empirically determined for this receptor population.
# [4] = target: α2 adrenergic receptors; test: Alpha-2 binding, 125iodoclonidine, canine brain (frontal cortex) membranes; parameters: species or system canine (mongrel dogs); details: canine cerebral cortex membranes
# Description: BRAIN ALPHA-2 RECEPTORS: Membranes of mongrel dogs were harvested from the canine frontal cortex and prepared as described for lung except that the final membrane protein concentration was adjusted to 0.5 mg/ml.
# as §2, §3, §4, §5
# [5] = — denotes absence of significant effect
# T1 sequence (P54833 whole entry): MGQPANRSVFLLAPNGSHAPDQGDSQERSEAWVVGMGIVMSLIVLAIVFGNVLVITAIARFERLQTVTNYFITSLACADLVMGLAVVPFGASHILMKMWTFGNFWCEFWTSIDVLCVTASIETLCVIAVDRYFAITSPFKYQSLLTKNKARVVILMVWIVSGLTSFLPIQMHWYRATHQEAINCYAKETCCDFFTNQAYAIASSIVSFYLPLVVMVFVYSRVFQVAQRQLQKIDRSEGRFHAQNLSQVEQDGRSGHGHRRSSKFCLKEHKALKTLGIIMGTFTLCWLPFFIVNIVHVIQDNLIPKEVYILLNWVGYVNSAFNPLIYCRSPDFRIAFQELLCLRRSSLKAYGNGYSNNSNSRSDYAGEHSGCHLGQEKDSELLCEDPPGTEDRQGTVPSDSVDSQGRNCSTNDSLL
smiles,measurement,setting,value
"C[C@H](N)[C@H](O)c1cccc(O)c1 (relative stereo) [R-(R*,S*) metaraminol]",Depression Time: 30-min period following injection in which the maximal depression occurred,[1],30 to 60 min
same,Stimulation Time: 30-min period following injection in which the maximal stimulant effect occurred,[1],90 to 120 min
same,"locomotor depressant effects, time course (result in words)",[1],dose-dependent locomotor depression within 10 to 20 minutes following injection
same,Depression Efficacy: ratio of the maximal depressant effect to the maximum possible effect (zero locomotor activity),[1],0.87
same,Stimulation Efficacy: ratio of the maximal stimulant effect of the test compound to the maximal effect of (+)-amphetamine,[1],0
same,Depression Potency: dose resulting in ½ the maximal depressant effect (ID50),[1]; [5],4.3 mg/kg
same,effect of triprolidine pretreatment on stimulant or depressant effects,[2],failed to show significant modification of stimulant or depressant effects
"Cc1ccc(/C(=C\CN2CCCC2)c2ccccn2)cc1 [triprolidine, Triprolidine HCl]","effect on horizontal distance, triprolidine alone","[2]; 0.25 to 25 mg/kg, 2-hour test period",failed to affect horizontal distance
same,"effect on locomotion, triprolidine alone",[2]; 50 and 100 mg/kg,Dose-dependent depression of locomotion
"CC(C)(C)NCC(O)COc1cccc2[nH]c(C#N)c(I)c12 (stereo not drawn) [ICYP, iodocyanopindolol]",Kd,"[3]; Saturation Analysis, Run 1",9.6 pM
same,Kd,"[3]; Saturation Analysis, Run 2",9.3 pM
same,Kd,"[3]; Saturation Analysis, Summary",9.5 pM
same,Kd,"[3]; Scatchard Analysis, Run 1",9.9 pM
same,Kd,"[3]; Scatchard Analysis, Run 2",7.8 pM
same,Kd,"[3]; Scatchard Analysis, Summary",8.9 pM
Clc1cc(I)cc(Cl)c1NC1=NCCN1 [p-iodoclonidine],Kd,"[4]; Saturation Analysis, read-out: Kd1 (high affinity)",150 pM
same,Kd,"[4]; Saturation Analysis, read-out: Kd2 (low affinity)",3010 pM
same,Kd,"[4]; Scatchard Analysis, read-out: Kd1 (high affinity)",150 pM
same,Kd,"[4]; Scatchard Analysis, read-out: Kd2 (low affinity)",870 pM
CNC(C)(C)Cc1ccccc1 [mephentermine],Depression Time: 30-min period following injection in which the maximal depression occurred,[1],0 to 30 min
same,Stimulation Time: 30-min period following injection in which the maximal stimulant effect occurred,[1],20 to 50 min
same,"locomotor stimulant effects, time course (result in words)",[1],"increased locomotion following from 5 to 25 mg/kg, with effects occurring within 20 minutes and lasting for up to 80 minutes"
same,time of peak stimulant effects following injection,[1],20 to 50 min
same,Depression Efficacy: ratio of the maximal depressant effect to the maximum possible effect (zero locomotor activity),[1],0
same,Stimulation Efficacy: ratio of the maximal stimulant effect of the test compound to the maximal effect of (+)-amphetamine,[1],1.25
same,Stimulation Potency: dose resulting in ½ the maximal stimulant effect (ID50),[1]; [5],5.6 mg/kg
same,effect of triprolidine pretreatment on stimulant or depressant effects,[2],failed to show significant modification of stimulant or depressant effects
